Calls of active or inactive are those of the source. Rule as the data show it: actives have a measured IC50 and inactives only a lower limit.

For the assay, the target named is Envelope glycoprotein gp160 (Human immunodeficiency virus 1, UniProt Q6QLK5). The experiment in a line: inhibitors of HIV fusion peptide binding, primary screen, biochemical, uHTS, fluorescence dequenching (AID 1986).
Sequence of Envelope glycoprotein gp160 (Q6QLK5 whole entry, the tested form may be a part): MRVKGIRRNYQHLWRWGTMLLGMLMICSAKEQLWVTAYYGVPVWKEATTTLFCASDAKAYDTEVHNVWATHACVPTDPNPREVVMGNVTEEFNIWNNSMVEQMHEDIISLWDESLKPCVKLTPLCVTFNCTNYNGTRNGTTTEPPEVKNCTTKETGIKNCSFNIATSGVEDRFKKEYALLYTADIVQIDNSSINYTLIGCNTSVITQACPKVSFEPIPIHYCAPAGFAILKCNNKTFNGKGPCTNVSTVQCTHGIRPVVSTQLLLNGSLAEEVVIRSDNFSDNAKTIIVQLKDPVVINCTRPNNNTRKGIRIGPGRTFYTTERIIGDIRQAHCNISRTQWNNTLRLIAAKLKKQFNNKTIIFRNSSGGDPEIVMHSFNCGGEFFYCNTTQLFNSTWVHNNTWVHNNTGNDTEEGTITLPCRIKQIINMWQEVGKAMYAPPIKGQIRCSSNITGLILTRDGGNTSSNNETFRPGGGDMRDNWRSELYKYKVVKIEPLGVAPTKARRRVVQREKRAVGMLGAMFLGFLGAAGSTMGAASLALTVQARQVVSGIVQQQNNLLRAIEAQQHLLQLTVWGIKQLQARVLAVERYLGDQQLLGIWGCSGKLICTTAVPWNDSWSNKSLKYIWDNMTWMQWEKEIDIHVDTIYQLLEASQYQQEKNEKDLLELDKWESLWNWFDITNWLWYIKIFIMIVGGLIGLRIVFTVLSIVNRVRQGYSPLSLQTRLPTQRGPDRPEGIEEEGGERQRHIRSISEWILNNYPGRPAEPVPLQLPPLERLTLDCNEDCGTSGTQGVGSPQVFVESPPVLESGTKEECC
Regarding `COc1ccc(O)c(C(=O)c2cc(SCC(=O)O)c3nc4sc5c(c4c(=O)n3c2)CCCC5)c1`, the 50% inhibitory concentration (IC50) (in general, the point on the concentration scale where inhibition reaches its midpoint) is 14.2 µM (active). The result for `COc1cc(/C=C2/C(=O)NN(c3ccc(C)c(Cl)c3)C2=O)cc([N+](=O)[O-])c1O` reads 30.2 µM (active). The result for `O=[N+]([O-])c1cc(Cl)cc(/C=N/NC(=S)Nc2ccc(S(=O)(=O)N3CCOCC3)cc2)c1O` reads 28.2 µM (active); that for `O=C(CCN1C(=O)/C(=C\c2ccccc2F)SC1=S)Nc1ccc(C(=O)O)c(O)c1`, 15.1 µM (active).

Source of the values: ChEMBL document CHEMBL1201862, “PubChem BioAssay data set” (2004).
